Assay results: patent US8623661B2, “Iron chelating agent, method for producing same, method for determining amount of iron ions and method for trapping iron ions” (National University Corporation Asahikawa Medical College, priority 2008, dated 2014)

Experiments:
[1] = test system: iron citrate complex ammonium salt (FAC); assay: Evaluation C: chelating ability in MOPS/acetonitrile solvent, FAC solution; assay type: binding
Protocol: Evaluation was carried out by the following evaluation method C as to whether or not the iron chelating agent according to Examples 1 to 3 had chelating ability with iron in 3-morpholinopropanesulfonic acid (C7H15NO4S;MOPS) and acetonitrile solution as solvents used in high performance liquid chromatography (HPLC).
2.09 g of morpholinopropanesulfonic acid (C7H15NO4S; FW=209.26, Code 341-01801, Lot PX013, manufactured by Dojindo/Wako Corporation) was added to a 100 mL Erlenmeyer flask, 80 mL of ultrapure water (pure water produced by an ultrapure water production system manufactured by Millipore Corporation (Milli-Q); “Milli-Q water”) was added thereto and dissolved [pH 4.15 (24.4° C.)]. To this solution, 1N sodium hydroxide solution (1 mol/1 sodium hydroxide solution, Code 192-02175, Lot SEP7274, manufactured by Wako Pure Chemicals Industries) was added in 100 μl portions, the pH was adjusted to 7.0 and further Milli-Q water was made up to 100 mL in a measuring cylinder, whereby 100 mL of MOPS solution (pH 6.99) was prepared.
An iron chelating agent solution having an iron chelating agent concentration of 50 mM was prepared with respect to the iron chelating agent according to Examples 1 to 3, in the same manner as the preparation method of the iron chelating solution in evaluation A of the iron chelating agent.
Further, 100 mM of MOPS solution (pH6.99) prepared by the preparation method of the MOPS solution was used.
Furthermore, a stock solution of acetonitrile (C2H3N, FW=41.05, Code 347-06641, Lot WPI96, manufactured by Dojindo/Wako corporation) was used.
13.8 mL of Milli-Q water was taken in a 50 mL conical tube, 1.2 mL of each of the iron chelating agent solutions (Fe-Ser•Na (50 mM), Fe-His•Na (50 mM), Fe-Glu•Na (50 mM)) according to the iron chelating agents of Examples 1 to 3 was added, 1.0 mL of 100 mM MOPS solution was added thereto, and a further 4.0 mL of acetonitrile solution was added to produce an iron chelating solution using MOPS. The iron chelating agent solutions using MOPS and iron chelating agent according to Examples 1 to 3 were defined respectively as Fe-Ser•Na (MOPS solution)” (iron chelating agent according to
Example 1), “Fe-His•Na (MOPS solution)” (iron chelating agent according to Example 2), and “Fe-Glu•Na(MOPS solution)” (iron chelating agent according to Example 3).
An iron citrate complex ammonium salt solution (FAC solution (20 mM)) having a concentration of iron ions of 20 mM and an iron citrate complex ammonium salt solution (FAC solution (2 mM)) having a concentration of iron ions of 2 mM were prepared, in the same manner as the preparation method of the iron citrate complex ammonium solution in evaluation A of the iron chelating agent.
FAC solution (20 mM) was added to and mixed with each of the iron chelating agent solutions [Fe-Ser•Na (MOPS solution), Fe-His•Na (MOPS solution), Fe-Glu•Na (MOPS solution)] using MOPS.

[2] = target: T1, transferrin iron complex (holo-Transferrin (hTf), human) (Homo sapiens, UniProt P02787); assay: Evaluation D: capture of iron ions from transferrin iron complex; assay type: binding
T1 construct: purchased Sigma Corporation T0665-50MG
Protocol: Evaluation was carried out by the following evaluation method D with respect to properties whether iron ions were captured from the transferrin iron complex (transferrin iron complex in which transferrin is chelated to iron ions) by the iron chelating agent according to Examples 1 to 2.
The iron chelating agent according to Example 1 was dissolved in 1×D-PBS (pH 7.2) to prepare an iron chelating agent solution (“Fe-Ser•Na (5 mM)”) having an iron chelating agent concentration of 5 mM, in the same manner as the preparation method of the iron chelating agent in evaluation A of the iron chelating agent.
Further, as described above, the iron chelating agent according to Example 2 was dissolved in 1×D-PBS (pH 7.2) to prepare an iron chelating agent solution (“Fe-His•Na (5 mM)”) having an iron chelating agent concentration of 5 mM.
Further, 800 mM HEDTA solution as the iron chelating agent according to Comparative Example 3 was prepared as described above. 13.76 g of crystals were taken in a 50 mL conical tube, 25 mL of Milli-Q water was added and dissolution performed, and then adjustment to pH 7.0 was performed using concentrated hydrochloric acid (35 to 37%) and the total amount was adjusted to 50 mL using Milli-Q water (HEDTA solution (800 mM)). HEDTA solution (“HEDTA solution (5 mM)”) having a concentration of HEDTA of 5 mM was prepared using 1×D-PBS (pH 7.2).
Further, 800 mM solution (pH 7.0) was prepared by using NTA2Na and NTA3Na as iron chelating agents according to Comparative Example 1 as described above. 9.4 g of NTA2Na was dissolved in Milli-Q water and the total volume was made up to 50 mL (referred to as “NTA2Na solution (800 mM)” in some cases). Meanwhile, 11.0 g of NTA3Na was dissolved in Milli-Q water and the total volume was made up to 50 mL (“NTA3Na solution (800 mM)”). NTA2Na solution (800 mM) (pH 6.3) and NTA3Na solution (800 mM) (pH 11.3) were mixed to produce 800 mM of NTA solution with pH 7.0. NTA solution (“NTA solution (5 mM)”) having a concentration of NTA of 5 mM was prepared by using 1×D-PBS (pH 7.2).
A commercially available transferrin iron complex (holo-Transferrin (hTf), human, Code T0665-50MG, Lot 095K1633, manufactured by Sigma Corporation) was dissolved in 1×D-PBS (pH 7.2) to prepare a transferrin iron complex solution having a concentration of iron ions (iron ions which are transferrin-bound iron) of 50 μM.
50 μl of 50 μM transferrin iron complex solution was taken in a 1.5 mL sample tube, 50 μl of each of iron chelating agent solutions (Fe-Ser•Na (5 mM), Fe-His•Na (5 mM), NTA solution (5 mM), HEDTA solution (5 mM)) was added thereto and left at room temperature under light shielding for 24 hours. 50 μl of various reaction liquids was taken in a centrifugal ultrafiltration unit (trade name “Amicon Ultra-4 Ultracel-30k” UFC8030, manufactured by Millipore Corporation), and 450 μl of 1×D-PBS (pH 7.2) was added thereto, centrifugation was carried out at 3,500 rpm and 20° C. for 30 minutes, and transferrin and each low molecular chelating agents were separated (first time). After centrifugation, the filtrate was discarded. 450 μl of 1×D-PBS (pH 7.2) was added again to the solution (about 50 μl) containing transferrin concentrated in a unit and centrifugation was carried out with the same conditions (second time). A solution containing transferrin concentrated in a unit was recovered after the second time of centrifugation and the absorbance at the wavelength of 466 nm was measured using a spectrophotometer (trade name “Spectrophotometer DU 640”, manufactured by Beckman Coulter).

T1 sequence (P02787 20-698, one chain of several): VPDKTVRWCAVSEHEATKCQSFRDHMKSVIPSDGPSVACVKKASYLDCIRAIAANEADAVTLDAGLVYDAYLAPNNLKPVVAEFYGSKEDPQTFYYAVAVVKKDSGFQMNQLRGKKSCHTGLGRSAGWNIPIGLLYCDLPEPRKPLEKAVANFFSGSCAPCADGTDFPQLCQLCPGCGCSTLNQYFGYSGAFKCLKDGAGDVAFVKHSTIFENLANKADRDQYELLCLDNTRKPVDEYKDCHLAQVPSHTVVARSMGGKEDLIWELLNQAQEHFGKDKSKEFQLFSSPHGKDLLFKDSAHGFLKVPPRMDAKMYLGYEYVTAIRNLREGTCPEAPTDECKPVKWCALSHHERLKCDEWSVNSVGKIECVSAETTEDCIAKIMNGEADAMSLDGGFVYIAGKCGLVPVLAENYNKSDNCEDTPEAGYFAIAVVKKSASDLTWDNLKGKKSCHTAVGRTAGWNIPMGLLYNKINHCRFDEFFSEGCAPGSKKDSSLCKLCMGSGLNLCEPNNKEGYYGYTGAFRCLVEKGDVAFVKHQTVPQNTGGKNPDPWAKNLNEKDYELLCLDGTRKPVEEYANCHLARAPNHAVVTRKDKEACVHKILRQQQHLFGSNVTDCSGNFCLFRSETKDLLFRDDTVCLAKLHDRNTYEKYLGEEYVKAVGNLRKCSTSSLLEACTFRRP

change of absorbance (wavelength 466 nm) after addition to the transferrin iron complex solution ([2]; conclusion from Table 5): increased
hTf residual ratio (%) ([2]; relative to non-treated holo-Transferrin, 24 hours with 5 mM chelator solution): 104.32%
Absorbance (466 nm) ([2]; transferrin fraction after 24 hours at room temperature with 5 mM chelator solution and 50 μM transferrin iron complex solution, ultrafiltration): 0.0772
Compound: O=C(O)C(CO)NCc1ccccc1O (stereo not drawn) [Example 1, o-[(1-carboxy-2-hydroxyethyl)-amino-methyl]-phenol]
colour of the solution after mixing ([1]; FAC solution (2 mM) added to chelating agent MOPS solution (MOPS, acetonitrile)): dark brown-colored
colour of the solution after mixing ([1]; FAC solution (20 mM) added to chelating agent MOPS solution (MOPS, acetonitrile)): dark brown-colored
capture of iron ions from the transferrin iron complex ([2]; conclusion from Table 5): does not remove iron ions of the transferrin iron complex
